According to US9693556B2, “Herbicidal pyridazinone derivatives” (SYNGENTA LIMITED, priority 2011, dated 2017):

Columns and labels:
Format in all cases: in vivo
Setaria faberi (SETFA) [1] = experiment: Post-emergence herbicidal glasshouse test on Setaria faberi; details: for POST Application SETFA herbicidal damage (five point scale): post-emergence, 1000 g/h, evaluated after 13 days
Description: (§1) Seeds of a variety of test species are sown in standard soil in pots (Alopecurus myosuroides (ALOMY), Setaria faberi (SETFA), Echinochloa crus-galli (ECHCG), Solanum nigrum (SOLNI), Amaranthus retoflexus (AMARE), Ipomoea hederacea (IPOHE)). After cultivation for one day (pre-emergence) or after 8 days cultivation (post-emergence) under controlled conditions in a glasshouse (at 24/16° C., day/night; 14 hours light; 65% humidity), the plants are sprayed with an aqueous spray solution derived from the formulation of the technical active ingredient in acetone/water (50:50) solution containing 0.5% Tween 20 (polyoxyethelyene sorbitan monolaurate, CAS RN 9005-64-5). Compounds are applied at 1000 g/h. The test plants are then grown in a glasshouse under controlled conditions in a glasshouse (at 24/16° C., day/night; 14 hours light; 65% humidity) and watered twice daily. After 13 days for pre and post-emergence, the test is evaluated for the percentage herbicidal damage caused to the plant. The biological activities are shown in the following table on a five point scale (5=80-100% damage; 4=60-79% damage; 3=40-59% damage; 2=20-39% damage; 1=0-19% damage).

[2] = test system: Alopecurus myosuroides (ALOMY); experiment: Post-emergence herbicidal glasshouse test on Alopecurus myosuroides; details: for POST Application ALOMY herbicidal damage (five point scale): post-emergence, 1000 g/h, evaluated after 13 days
Description: as §1

[3] = test system: Echinochloa crus-galli (ECHCG); experiment: Pre-emergence herbicidal glasshouse test on Echinochloa crus-galli; details: pre-emergence; 1000 g/h; evaluated after 13 days
Description: as §1

[4] = test system: Ipomoea hederacea (IPOHE); experiment: Post-emergence herbicidal glasshouse test on Ipomoea hederacea; details: for POST Application IPOHE herbicidal damage (five point scale): post-emergence, 1000 g/h, evaluated after 13 days
Description: as §1

[5] = test system: Alopecurus myosuroides (ALOMY); experiment: Pre-emergence herbicidal glasshouse test on Alopecurus myosuroides; details: for PRE Application ALOMY herbicidal damage (five point scale): pre-emergence, 1000 g/h, evaluated after 13 days
Description: as §1

Solanum nigrum (SOLNI) [6] = experiment: Pre-emergence herbicidal glasshouse test on Solanum nigrum; details: for PRE Application SOLNI herbicidal damage (five point scale): pre-emergence, 1000 g/h, evaluated after 13 days
Description: as §1

[7] = test system: Echinochloa crus-galli (ECHCG); experiment: Post-emergence herbicidal glasshouse test on Echinochloa crus-galli; details: for POST Application ECHCG herbicidal damage (five point scale): post-emergence, 1000 g/h, evaluated after 13 days
Description: as §1

[8] = test system: Amaranthus retoflexus (AMARE); experiment: Pre-emergence herbicidal glasshouse test on Amaranthus retoflexus; details: for PRE Application AMARE herbicidal damage (five point scale): pre-emergence, 1000 g/h, evaluated after 13 days
Description: as §1

Setaria faberi (SETFA) [9] = experiment: Pre-emergence herbicidal glasshouse test on Setaria faberi; details: for PRE Application SETFA herbicidal damage (five point scale): pre-emergence, 1000 g/h, evaluated after 13 days
Description: as §1

[10] = test system: Amaranthus retoflexus (AMARE); experiment: Post-emergence herbicidal glasshouse test on Amaranthus retoflexus; details: for POST Application AMARE herbicidal damage (five point scale): post-emergence, 1000 g/h, evaluated after 13 days
Description: as §1

Solanum nigrum (SOLNI) [11] = experiment: Post-emergence herbicidal glasshouse test on Solanum nigrum; details: for POST Application SOLNI herbicidal damage (five point scale): post-emergence, 1000 g/h, evaluated after 13 days
Description: as §1

[12] = test system: Ipomoea hederacea (IPOHE); experiment: Pre-emergence herbicidal glasshouse test on Ipomoea hederacea; details: pre-emergence; 1000 g/h; evaluated after 13 days
Description: as §1

| SMILES | POST Application SETFA herbicidal damage (five point scale) (Setaria faberi (SETFA) [1]) | POST Application ALOMY herbicidal damage (five point scale) [2] | PRE Application ECHCG herbicidal damage (five point scale) [3] | POST Application IPOHE herbicidal damage (five point scale) [4] | PRE Application ALOMY herbicidal damage (five point scale) [5] | PRE Application SOLNI herbicidal damage (five point scale) (Solanum nigrum (SOLNI) [6]) | POST Application ECHCG herbicidal damage (five point scale) [7] | PRE Application AMARE herbicidal damage (five point scale) [8] | PRE Application SETFA herbicidal damage (five point scale) (Setaria faberi (SETFA) [9]) | POST Application AMARE herbicidal damage (five point scale) [10] | POST Application SOLNI herbicidal damage (five point scale) (Solanum nigrum (SOLNI) [11]) | PRE Application IPOHE herbicidal damage (five point scale) [12] | also measured |
| --- | --- | --- | --- | --- | --- | --- | --- | --- | --- | --- | --- | --- | --- |
| Cc1ccn(-c2cnn(C)c(=O)c2O)c(=O)c1 [Compound 1.065] | 5 (5=80-100% damage) | 1 (1=0-19% damage) | 3 (3=40-59% damage) | 4 (4=60-79% damage) | 1 (1=0-19% damage) | 1 (1=0-19% damage) | 5 (5=80-100% damage) | 5 (5=80-100% damage) | 2 (2=20-39% damage) | 5 (5=80-100% damage) | 4 (4=60-79% damage) | – | – |
| Cc1cccn(-c2cnn(C)c(=O)c2O)c1=O [Compound 1.062] | 4 (4=60-79% damage) | 2 (2=20-39% damage) | 1 (1=0-19% damage) | 5 (5=80-100% damage) | 1 (1=0-19% damage) | 1 (1=0-19% damage) | 5 (5=80-100% damage) | – | 1 (1=0-19% damage) | 5 (5=80-100% damage) | 4 (4=60-79% damage) | 1 (1=0-19% damage) | – |
| CCCn1ncc(-c2ccc(C(F)(F)F)cc2Cl)c(O)c1=O [Compound 1.126] | 2 (2=20-39% damage) | 1 (1=0-19% damage) | 1 (1=0-19% damage) | 3 (3=40-59% damage) | 1 (1=0-19% damage) | 1 (1=0-19% damage) | 2 (2=20-39% damage) | – | 1 (1=0-19% damage) | 5 (5=80-100% damage) | 4 (4=60-79% damage) | 1 (1=0-19% damage) | – |
| CCCCn1c(C2CC2)ncc(-c2cnn(C)c(=O)c2O)c1=O [Compound 10.005] | – | – | – | – | – | – | – | – | – | – | – | – | POST Application SETFA (Setaria faberi (SETFA) [1]; post-emergence application, Setaria faberi, damage score 1-5): 5 (5=80-100% damage); POST Application ALOMY ([2]; post-emergence application, Alopecurus myosuroides, damage score 1-5): 2 (2=20-39% damage); POST Application IPOHE ([4]; post-emergence application, Ipomoea hederacea, damage score 1-5): 4 (4=60-79% damage); PRE Application ALOMY ([5]; pre-emergence application, Alopecurus myosuroides, damage score 1-5): 1 (1=0-19% damage); PRE Application SOLNI (Solanum nigrum (SOLNI) [6]; pre-emergence application, Solanum nigrum, damage score 1-5): 5 (5=80-100% damage); POST Application ECHCG ([7]; post-emergence application, Echinochloa crus-galli, damage score 1-5): 5 (5=80-100% damage); PRE Application AMARE ([8]; pre-emergence application, Amaranthus retoflexus, damage score 1-5): 5 (5=80-100% damage); PRE Application SETFA (Setaria faberi (SETFA) [9]; pre-emergence application, Setaria faberi, damage score 1-5): 1 (1=0-19% damage); POST Application AMARE ([10]; post-emergence application, Amaranthus retoflexus, damage score 1-5): 5 (5=80-100% damage); POST Application SOLNI (Solanum nigrum (SOLNI) [11]; post-emergence application, Solanum nigrum, damage score 1-5): 5 (5=80-100% damage) |
| COc1ccc(-c2cnn(C)c(=O)c2O)c(C(F)(F)F)c1 [Compound 1.115] | 1 (1=0-19% damage) | 1 (1=0-19% damage) | 2 (2=20-39% damage) | 4 (4=60-79% damage) | 1 (1=0-19% damage) | 4 (4=60-79% damage) | 1 (1=0-19% damage) | 4 (4=60-79% damage) | 1 (1=0-19% damage) | 2 (2=20-39% damage) | 5 (5=80-100% damage) | – | – |
| Cn1ncc(-c2ccccc2[N+](=O)[O-])c(O)c1=O [Compound 1.111] | 1 (1=0-19% damage) | 1 (1=0-19% damage) | 1 (1=0-19% damage) | 1 (1=0-19% damage) | 1 (1=0-19% damage) | – | 1 (1=0-19% damage) | – | 1 (1=0-19% damage) | 2 (2=20-39% damage) | 3 (3=40-59% damage) | 2 (2=20-39% damage) | – |
| C=Cc1ccc(-c2cnn(C)c(=O)c2O)c(S(C)(=O)=O)c1 [Compound 1.139] | 5 (5=80-100% damage) | 5 (5=80-100% damage) | 5 (5=80-100% damage) | 5 (5=80-100% damage) | 5 (5=80-100% damage) | – | 5 (5=80-100% damage) | 5 (5=80-100% damage) | 1 (1=0-19% damage) | 5 (5=80-100% damage) | 5 (5=80-100% damage) | 4 (4=60-79% damage) | – |
| CC(C)n1ncc(-c2c(Cl)ccc(Cl)c2Cl)c(O)c1=O [Compound 1.015] | 1 (1=0-19% damage) | 1 (1=0-19% damage) | 1 (1=0-19% damage) | 4 (4=60-79% damage) | 1 (1=0-19% damage) | – | 2 (2=20-39% damage) | – | 1 (1=0-19% damage) | 2 (2=20-39% damage) | 4 (4=60-79% damage) | 1 (1=0-19% damage) | – |
| CCn1ncc(-c2ccc(S(C)(=O)=O)c(C3=NOCC3)c2Cl)c(O)c1=O [Compound 1.009] | 5 (5=80-100% damage) | 5 (5=80-100% damage) | 5 (5=80-100% damage) | 5 (5=80-100% damage) | 5 (5=80-100% damage) | 5 (5=80-100% damage) | 5 (5=80-100% damage) | 5 (5=80-100% damage) | 5 (5=80-100% damage) | 5 (5=80-100% damage) | 5 (5=80-100% damage) | – | – |
